pIC50: −log10 of the molar value. Structures can show the parent of a compound that is named as a salt. Where two headings read alike, the source gives them in different places.
How the values were obtained:
[1] = tested on: Phosphorylated Ribosomal Protein S6 (RPS6); test: THP-1 RPS6 ELISA Assay; assay type: cell-based, Human; conditions: THP-1 cells, read-out: PI3Kγ_THP1_RPS6_ELISA IC50
Outline: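 Serum-starved THP-1 cells were preincubated with a concentration range of compound for 2 h at 37 °C, then stimulated with 10 nM MCP-1 for 15 min. Phospho-RPS6 in lysates was quantified by ELISA at 450 nm. IC50 came from percent inhibition versus log inhibitor concentration.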

[2] = target: PI3Kγ (p110γ) Recombinant Human Protein (Homo sapiens (Human), UniProt P48736); test: PI3K-γ Scintillation Proximity Assay; assay type: biochemical; conditions: read-out: PI3Kγ IC50
Sequence of PI3Kγ (p110γ) Recombinant Human Protein (P48736 whole entry): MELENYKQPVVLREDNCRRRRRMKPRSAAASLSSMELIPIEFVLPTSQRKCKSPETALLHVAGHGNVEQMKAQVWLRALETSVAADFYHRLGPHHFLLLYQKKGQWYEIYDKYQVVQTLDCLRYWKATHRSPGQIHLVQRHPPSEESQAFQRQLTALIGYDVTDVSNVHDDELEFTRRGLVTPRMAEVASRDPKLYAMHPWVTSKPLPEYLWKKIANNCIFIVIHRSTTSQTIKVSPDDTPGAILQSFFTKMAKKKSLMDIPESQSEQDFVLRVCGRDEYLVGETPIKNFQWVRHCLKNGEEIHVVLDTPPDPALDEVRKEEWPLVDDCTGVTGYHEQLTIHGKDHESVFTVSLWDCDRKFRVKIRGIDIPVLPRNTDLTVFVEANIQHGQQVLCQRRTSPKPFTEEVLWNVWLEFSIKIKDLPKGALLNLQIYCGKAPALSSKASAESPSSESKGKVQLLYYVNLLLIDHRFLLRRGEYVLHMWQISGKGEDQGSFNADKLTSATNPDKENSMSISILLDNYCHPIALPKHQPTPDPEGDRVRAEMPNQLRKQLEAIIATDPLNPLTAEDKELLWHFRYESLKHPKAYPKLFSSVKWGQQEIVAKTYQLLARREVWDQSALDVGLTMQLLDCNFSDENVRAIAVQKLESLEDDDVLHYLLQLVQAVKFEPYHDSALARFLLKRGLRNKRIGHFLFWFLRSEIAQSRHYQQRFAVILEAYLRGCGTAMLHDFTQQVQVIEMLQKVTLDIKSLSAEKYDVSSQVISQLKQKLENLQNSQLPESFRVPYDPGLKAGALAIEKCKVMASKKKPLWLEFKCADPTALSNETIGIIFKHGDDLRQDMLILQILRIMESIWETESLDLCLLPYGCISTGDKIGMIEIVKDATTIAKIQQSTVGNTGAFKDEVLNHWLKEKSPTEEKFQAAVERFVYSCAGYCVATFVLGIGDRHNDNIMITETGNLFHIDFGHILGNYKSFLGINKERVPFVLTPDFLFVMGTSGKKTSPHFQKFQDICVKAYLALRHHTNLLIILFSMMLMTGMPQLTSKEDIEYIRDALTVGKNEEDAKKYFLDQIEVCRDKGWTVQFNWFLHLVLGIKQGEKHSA
Outline: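 Recombinant human p110γ assayed at room temperature in 20 mM MOPS pH 6.7, 10 mM MgCl2, 5 mM DTT, 0.03% CHAPS, 2% DMSO, with 20 μM PIP2 and 2 μM ATP plus [γ-33P]ATP. Product captured on WGA SPA beads overnight and counted; IC50 fitted from % of solvent-control activity versus log inhibitor concentration.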

[3] = target: PI3Kδ (p110δ/p85α) Recombinant Human Protein (Homo sapiens (Human), UniProt O00329); test: PI3Kδ Scintillation Proximity Assay; assay type: biochemical
Sequence of PI3Kδ (p110δ/p85α) Recombinant Human Protein (O00329 whole entry): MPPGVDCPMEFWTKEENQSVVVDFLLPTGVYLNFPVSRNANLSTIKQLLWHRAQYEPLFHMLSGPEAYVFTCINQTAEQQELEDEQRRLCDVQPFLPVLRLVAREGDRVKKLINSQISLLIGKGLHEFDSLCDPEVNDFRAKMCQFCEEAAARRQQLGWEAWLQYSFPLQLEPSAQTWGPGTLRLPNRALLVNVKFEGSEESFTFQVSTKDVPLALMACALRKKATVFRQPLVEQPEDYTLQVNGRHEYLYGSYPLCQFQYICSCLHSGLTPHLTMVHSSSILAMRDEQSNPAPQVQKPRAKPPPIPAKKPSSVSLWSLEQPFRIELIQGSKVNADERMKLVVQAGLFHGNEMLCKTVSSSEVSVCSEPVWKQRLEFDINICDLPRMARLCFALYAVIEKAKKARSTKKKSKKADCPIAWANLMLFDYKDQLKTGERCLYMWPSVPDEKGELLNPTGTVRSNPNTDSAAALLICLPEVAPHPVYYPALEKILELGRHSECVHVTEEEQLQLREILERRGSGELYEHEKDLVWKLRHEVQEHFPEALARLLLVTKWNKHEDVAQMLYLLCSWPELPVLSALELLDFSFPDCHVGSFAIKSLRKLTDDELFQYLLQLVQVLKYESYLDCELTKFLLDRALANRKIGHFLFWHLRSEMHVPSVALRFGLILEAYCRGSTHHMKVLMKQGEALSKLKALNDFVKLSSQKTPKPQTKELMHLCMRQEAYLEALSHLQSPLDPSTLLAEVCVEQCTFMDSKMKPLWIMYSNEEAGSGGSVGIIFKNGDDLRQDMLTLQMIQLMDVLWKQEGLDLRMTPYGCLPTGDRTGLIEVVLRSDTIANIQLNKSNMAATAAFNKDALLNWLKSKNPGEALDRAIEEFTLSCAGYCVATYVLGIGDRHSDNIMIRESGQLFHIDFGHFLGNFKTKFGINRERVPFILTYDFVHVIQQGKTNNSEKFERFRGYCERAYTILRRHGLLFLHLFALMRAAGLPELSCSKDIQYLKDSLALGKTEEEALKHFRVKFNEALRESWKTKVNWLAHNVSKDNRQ
Sequence of PI3Kδ (p110δ/p85α) Recombinant Human Protein (P27986 whole entry partner): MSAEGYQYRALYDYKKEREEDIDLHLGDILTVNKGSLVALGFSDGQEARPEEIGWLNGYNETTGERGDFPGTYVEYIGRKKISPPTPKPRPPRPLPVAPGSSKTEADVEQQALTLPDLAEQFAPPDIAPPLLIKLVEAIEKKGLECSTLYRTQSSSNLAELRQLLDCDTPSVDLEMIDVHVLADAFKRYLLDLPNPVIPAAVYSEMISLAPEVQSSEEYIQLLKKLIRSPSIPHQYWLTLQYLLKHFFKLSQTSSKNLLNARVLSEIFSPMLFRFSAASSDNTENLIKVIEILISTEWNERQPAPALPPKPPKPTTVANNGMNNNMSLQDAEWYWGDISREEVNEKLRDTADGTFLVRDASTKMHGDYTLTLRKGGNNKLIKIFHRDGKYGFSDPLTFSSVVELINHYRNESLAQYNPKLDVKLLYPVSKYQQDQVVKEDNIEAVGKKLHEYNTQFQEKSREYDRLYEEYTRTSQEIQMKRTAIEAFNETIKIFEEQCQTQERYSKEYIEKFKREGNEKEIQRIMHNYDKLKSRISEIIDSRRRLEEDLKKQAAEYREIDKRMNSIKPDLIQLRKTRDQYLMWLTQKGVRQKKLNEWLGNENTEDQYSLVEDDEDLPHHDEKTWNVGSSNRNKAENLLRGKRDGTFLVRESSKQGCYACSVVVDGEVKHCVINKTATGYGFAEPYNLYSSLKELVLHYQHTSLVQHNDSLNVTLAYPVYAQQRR
Outline: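 Kinase reaction run at room temperature in 20 mM MOPS pH 6.7, 10 mM MgCl2, 5 mM DTT, 0.03% CHAPS with 20 μM PIP2, 2 μM ATP plus [γ-33P]ATP, 3.4 nM enzyme, 2% DMSO; 120 min. Quenched with WGA SPA beads/EDTA, counted by scintillation; IC50 from % solvent-control activity vs log concentration.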

Row | pIC50 [2] | pIC50 [3] | pIC50 ([1]; Homo sapiens) | Compound | pIC50 [1]
1 | > 7.00 | 6.30 to 7.00 | 6.30 to 7.00 | Cc1noc(C23CC(NS(=O)(=O)c4ccc(C)c(-c5cnc6c(N)nc(C(F)(F)F)cn56)c4)(C2)C3)n1 [Example 293, 3-(8-Amino-6-(trifluoromethyl)imidazo[1,2-a]pyrazin-3-yl)-4-methyl-N-(3-(3-methyl-1,2,4-oxadiazol-5-yl)bicyclo[1.1.1]pentan-1-yl)benzenesulfonamide trifluoroacetate salt] | –
2 | > 7.00 | 6.30 to 7.00 | 6.30 to 7.00 | Cc1ccc(S(=O)(=O)N[C@H]2CC[C@H](O)CC2)cc1-c1cnc2c(N)nc(-c3c(C)noc3C)cn12 [Example 77, 3-[8-amino-6-(3,5-dimethylisoxazol-4-yl)imidazo[1,2-a]pyrazin-3-yl]-N-(trans-4-hydroxycyclohexyl)-4-methylbenzenesulfonamide] | –
3 | > 7.00 | > 7.00 | 6.30 to 7.00 | Cc1ccc(S(=O)(=O)CC2(O)CCC2)cc1-c1cnc2c(N)nc(-c3ccncc3F)cn12 [Example 503, 1-(((3-(8-Amino-6-(3-fluoropyridin-4-yl)imidazo[1,2-a]pyrazin-3-yl)-4-methylphenyl)sulfonyl)methyl)cyclobutan-1-ol] | –
4 | > 7.00 | 6.30 to 7.00 | – | Cc1c(F)cc(S(=O)(=O)NC23CCC(CO)(CC2)OC3)cc1-c1cnc2c(N)ncnn12 [Example 375, 3-(4-aminoimidazo[1,2-f][1,2,4]triazin-7-yl)-5-fluoro-N-(1-(hydroxymethyl)-2-oxabicyclo[2.2.2]octan-4-yl)-4-methylbenzenesulfonamide trifluoroacetate salt] | > 7.00
5 | > 7.00 | > 7.00 | > 7.00 | Cc1ccc(S(=O)(=O)N2C[C@@H](C)C[C@@H](N)C2)cc1-c1cnc2c(N)nc(C(F)(F)F)cn12 [Example 306, 3-(5-(((3R,5S)-3-amino-5-methylpiperidin-1-yl)sulfonyl)-2-methylphenyl)-6-(trifluoromethyl)imidazo[1,2-a]pyrazin-8-amine] | –
6 | > 7.00 | 5.70 to 6.30 | 6.30 to 7.00 | Cc1ccc(S(=O)(=O)NC2CC(CO)(CO)C2)cc1-c1cnc2c(N)ncnn12 [Example 126, 3-(4-aminoimidazo[2,1-f][1,2,4]triazin-7-yl)-N-[3,3-bis(hydroxymethyl)cyclobutyl]-4-methylbenzenesulfonamide] | –
7 | > 7.00 | > 7.00 | 6.30 to 7.00 | Cc1cn2c(-c3cc(S(=O)(=O)N[C@H]4CC[C@](C)(O)CC4)ccc3C)cnc2c(N)n1 [Example 505, 3-(8-Amino-6-methylimidazo[1,2-a]pyrazin-3-yl)-N-((1r,4r)-4-hydroxy-4-methylcyclohexyl)-4-methylbenzenesulfonamide] | –
8 | > 7.00 | 6.30 to 7.00 | 6.30 to 7.00 | Cc1ccc(S(=O)(=O)NC23COC(C#N)(C2)C3)cc1-c1cnc2c(N)nc(C(F)(F)F)cn12 [Example 429, 3-(8-Amino-6-(trifluoromethyl)imidazo[1,2-a]pyrazin-3-yl)-N-(1-cyano-2-oxabicyclo[2.1.1]hexan-4-yl)-4-methylbenzenesulfonamide trifluoroacetate salt] | –
9 | > 7.00 | 6.30 to 7.00 | – | Cc1ccc(S(=O)(=O)NCC2(O)COC2)cc1-c1cnc2c(N)nc(C(F)(F)F)nn12 [Example 316, 3-(4-Amino-2-(trifluoromethyl)imidazo[1,2-f][1,2,4]triazin-7-yl)-N-((3-hydroxyoxetan-3-yl)methyl)-4-methylbenzenesulfonamide trifluoroacetate salt] | > 7.00
10 | > 7.00 | 6.30 to 7.00 | 6.30 to 7.00 | Cc1ccc(S(=O)(=O)NC23CCC(C#N)(CC2)CC3)cc1-c1cnc2c(N)ncnn12 [Example 187, 3-(4-aminoimidazo[2,1-f][1,2,4]triazin-7-yl)-N-(4-cyanobicyclo[2.2.2]octan-1-yl)-4-methylbenzenesulfonamide] | –
11 | > 7.00 | 6.30 to 7.00 | > 7.00 | Cc1ccc(S(=O)(=O)NC23CC(CO)(C2)C3)cc1-c1cnc2c(N)nc(C(F)(F)F)cn12 [Example 274, 3-(8-Amino-6-(trifluoromethyl)imidazo[1,2-a]pyrazin-3-yl)-N-(3-(hydroxymethyl)bicyclo[1.1.1]pentan-1-yl)-4-methylbenzenesulfonamide trifluoroacetate salt] | –
12 | > 7.00 | 6.30 to 7.00 | 6.00 to 6.30 | Cc1nc2c(N)ncnn2c1-c1cccc(S(=O)(=O)NC23CCC(C#N)(C2)C3)c1 [Example 258, 3-(4-Amino-6-methylimidazo[2,1-f][1,2,4]triazin-7-yl)-N-(4-cyanobicyclo[2.1.1]hexan-1-yl)benzenesulfonamide trifluoroacetate salt] | –
13 | > 7.00 | 6.30 to 7.00 | > 7.00 | Cc1ccc(S(=O)(=O)N[C@H]2CC[C@H](O)CC2)cc1-c1cnc2c(N)cc(Cl)cn12 [Example 4, 3-(8-Amino-6-chloroimidazo[1,2-a]pyridin-3-yl)-N-(trans-4-hydroxycyclohexyl)-4-methylbenzenesulfonamide trifluoroacetate] | –
14 | > 7.00 | > 7.00 | 6.30 to 7.00 | COc1ncccc1-c1cn2c(-c3cc(S(=O)(=O)C(C)(C)C(C)O)ccc3C)cnc2c(N)n1 (stereo not drawn) [Example 502, 3-((3-(8-Amino-6-(2-methoxypyridin-3-yl)imidazo[1,2-a]pyrazin-3-yl)-4-methylphenyl)sulfonyl)-3-methylbutan-2-ol trifluoroacetate] | –
15 | > 7.00 | 5.70 to 6.30 | 6.30 to 7.00 | Cc1ccc(S(=O)(=O)NC23CCC(O)(CC2)C3)cc1-c1cnc2c(N)ncnn12 [Example 442, 3-(4-Aminoimidazo[1,2-f][1,2,4]triazin-7-yl)-N-((1s,4s)-4-hydroxybicyclo[2.2.1]heptan-1-yl)-4-methylbenzenesulfonamide trifluoroacetate salt] | –
16 | > 7.00 | > 7.00 | > 7.00 | [2H]C([2H])([2H])c1ccc(S(=O)(=O)N[C@H]2CC[C@H](CC#N)OC2)cc1-c1cnc2c(N)nc(C(F)(F)F)cn12 [Example 406, 3-(8-amino-6-(trifluoromethyl)imidazo[1,2-a]pyrazin-3-yl)-N-((3S,6R)-6-(cyanomethyl)tetrahydro-2H-pyran-3-yl)-4-(methyl-d3)benzenesulfonamide] | –
17 | > 7.00 | > 7.00 | > 7.00 | Cc1ccc(S(=O)(=O)N2CC[C@H](O)C2)cc1-c1cnc2c(N)nc(-c3ccc(CO)cc3F)cn12 [Example 506, (S)-1-((3-(8-Amino-6-(2-fluoro-4-(hydroxymethyl)phenyl)imidazo[1,2-a]pyrazin-3-yl)-4-methylphenyl)sulfonyl)pyrrolidin-3-ol] | –
18 | > 7.00 | > 7.00 | – | CC(=O)N1CC(O)(CNS(=O)(=O)c2ccc(C)c(-c3cnc4c(N)nc(C(F)(F)F)nn34)c2)C1 [Example 325, N-((l-Acetyl-3-hydroxyazetidin-3-yl)methyl)-3-(4-amino-2-(trifluoromethyl)imidazo[1,2-f][1,2,4]triazin-7-yl)-4-methylbenzenesulfonamide trifluoroacetate salt] | 6.30 to 7.00
19 | > 7.00 | 5.70 to 6.30 | 6.30 to 7.00 | Cc1ccc(S(=O)(=O)N(C)[C@H]2CC[C@H](O)CC2)cc1-c1cnc2c(N)ncnn12 [Example 69, 3-(4-Aminoimidazo[2,1-f][1,2,4]triazin-7-yl)-N-(trans-4-hydroxycyclohexyl)-N,4-dimethylbenzenesulfonamide] | –

Row | Compound | pIC50 [2] | pIC50 [3] | pIC50 ([1]; Homo sapiens) | pIC50 [1]
20 | Nc1nc(C(F)(F)F)nn2c(-c3cccc(S(=O)(=O)NC45CCC(CO)(C4)C5)c3)cnc12 [Example 411, 3-(4-Amino-2-(trifluoromethyl)imidazo[1,2-f][1,2,4]triazin-7-yl)-N-(4-(hydroxymethyl)bicyclo[2.1.1]hexan-1-yl)benzenesulfonamide trifluoroacetate salt] | > 7.00 | 6.30 to 7.00 | – | 6.30 to 7.00
21 | Cc1ccc(S(=O)(=O)NC2CN(C3COC3)C2)cc1-c1cnc2c(N)nc(C(F)(F)F)nn12 [Example 337, 3-(4-Amino-2-(trifluoromethyl)imidazo[1,2-f][1,2,4]triazin-7-yl)-4-methyl-N-(1-(oxetan-3-yl)azetidin-3-yl)benzenesulfonamide trifluoroacetate salt] | > 7.00 | 6.30 to 7.00 | – | 6.30 to 7.00
22 | C[C@]1(O)CC[C@H](NS(=O)(=O)c2cc(-c3cnc4c(N)ncnn34)ccc2Cl)CC1 [Example 377, 5-(4-aminoimidazo[2,1-f][1,2,4]triazin-7-yl)-2-chloro-N-((1r,4r)-4-hydroxy-4-methylcyclohexyl)benzenesulfonamide] | > 7.00 | > 7.00 | – | > 7.00
23 | Cc1ccc(S(=O)(=O)NC23CCN(CC2)CC3)cc1-c1cnc2c(N)ncnn12 [Example 182, 3-(4-aminoimidazo[1,2-f][1,2,4]triazin-7-yl)-4-methyl-N-(quinuclidin-4-yl)benzenesulfonamide trifluoroacetate salt] | > 7.00 | 5.70 to 6.30 | – | 6.00 to 6.30
